Columns and labels:
HMECs = experiment: Growth of normal mammary epithelial cells; assay type: cell-based, human; details: 10 μM, 6 days
[1] = test system: NIH 3T3 cells stably expressing Cdc42(F28L), Rac(F28L), RhoC(F30L); experiment: Transforming activity of constitutively active Rho GTPase mutants; assay type: cell-based; details: 10 μM
Procedure: FIGS. 2A-G illustrate effects of 968 on the transforming activity of constitutively active Rho GTPases and human breast cancer cells. […] Cells are scored after 14 days and plotted as the percentage of the total number of colonies greater than […] in diameter. Data represent the average of 3 experiments (±s.d.). […] Data represent the average of 3 experiments (±s.d.). […] Data represent the average of 3 experiments (±s.d.). […] After 24 hours at 37° C. the migratory cells are fixed, stained with GIEMSA, and counted. Data represent the average of 3 experiments (±s.d.). […] Data represent the average of 3 experiments (±s.d.). […] Data represent the average of 3 experiments (±s.d.). […] Data represent the average of 3 experiments (±s.d.).

[2] = test system: NIH 3T3 cells expressing H-Ras(G12V); experiment: H-Ras(G12V)-induced transformation (focus formation, growth in low serum); assay type: cell-based; details: focus formation in NIH 3T3 cells or growth in low serum
Description: FIGS. 5A-C illustrate comparative abilities of 968 and other benzo[a]phenanthrldinones to inhibit the transforming activity of oncogenic Dbl and H-Ras. […] Histograms show the relative levels of Dbl-induced focus formation for the different treatments, compared to Dbl-induced focus formation measured in the presence of DMSO (i.e. solvent control). Data represent the average of 3 experiments (mean±s.d.). […] Histograms show the relative levels of Ras(G12V)-induced focus formation measured for the different treatments, compared to Ras(G12V)-induced focus formation measured in the presence of DMSO (solvent control). Data represent the average of 3 experiments (mean±s.d.). FIG. 5C NIH 3T3 cells stably expressing H-Ras(G12V) that are cultured in DMEM supplemented with 1% calf serum, with the indicated amounts of 968. After 6 days, cells are trypsinized and counted. 100% represents the number of cells counted in the absence of 968, i.e. 26×10^4 cells. Data represent the average of 3 experiments (mean±s.d.).

[3] = biological target: T1, V5-tagged GAC in NIH 3T3 cells stably expressing Dbl (Mus musculus, UniProt D3Z7P3); experiment: GAC phosphorylation by 2-D gel and Western blotting; assay type: cell-based; details: 10 μM for 48 hours
T1 construct: expressed in transfected cells; host or cells: NIH 3T3 cells stably expressing oncogenic Dbl
T1 sequence (D3Z7P3 55-603 isoform D3Z7P3-2 limits assumed): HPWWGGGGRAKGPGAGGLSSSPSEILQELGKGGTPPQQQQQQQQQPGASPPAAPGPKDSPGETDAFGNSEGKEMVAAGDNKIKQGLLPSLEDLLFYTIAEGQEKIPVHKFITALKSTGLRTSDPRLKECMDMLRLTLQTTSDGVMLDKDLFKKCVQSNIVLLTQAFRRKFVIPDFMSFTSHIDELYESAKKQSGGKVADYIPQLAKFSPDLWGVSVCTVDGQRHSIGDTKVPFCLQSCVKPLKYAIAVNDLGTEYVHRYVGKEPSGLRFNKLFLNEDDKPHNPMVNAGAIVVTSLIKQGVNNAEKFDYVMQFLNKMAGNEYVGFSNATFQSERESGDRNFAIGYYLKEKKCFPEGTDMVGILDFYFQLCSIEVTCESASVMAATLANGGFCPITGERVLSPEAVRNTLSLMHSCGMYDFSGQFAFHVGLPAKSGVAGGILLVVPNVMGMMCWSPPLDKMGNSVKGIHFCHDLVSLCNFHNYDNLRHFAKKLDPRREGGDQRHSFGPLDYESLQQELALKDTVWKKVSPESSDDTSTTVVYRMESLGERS
Procedure: NIH 3T3 cells stably expressing the Dbl oncogene, were transiently transfected with DNA encoding a VS-tagged GAC, and then one sample was treated with 968 (10 μM) for 48 hours. The cells were then harvested and the ectopically expressed GAC was isolated by immunoprecipitation via the V5 tag. The samples were then subjected to 2-D gel analysis to separate the V5-GAC by charge and size, and the V5-tagged GAC was visualized by Western blotting using an anti-V5 antibody. […] Since 968 inhibits the enzymatic activity of GAC, and the phosphorylation appears to be required for its basal enzyme activity, it appears that 968 might be functioning to inhibit glutaminase C by inhibiting the ability of at least one site on glutaminase C to become phosphorylated.

[4] = biological target: T2, V5-tagged GAC from Dbl-transformed NIH 3T3 cells (Mus musculus, UniProt D3Z7P3); experiment: GA activity of immunoprecipitated V5-GAC; assay type: cell-based; details: absence of phosphate
T2 construct: expressed in transfected cells; host or cells: NIH 3T3 cells stably expressing oncogenic Dbl
T2 sequence (D3Z7P3 55-603 isoform D3Z7P3-2 limits assumed): T1 sequence (D3Z7P3 55-603 isoform D3Z7P3-2 limits assumed)
Description: FIGS. 4A-E illustrate the role of glutaminase C activity in cellular transformation. […] Data represent the average of 3 experiments (±s.d.). […] Data represent the average of 3 experiments (±s.d.). […] 100% represents the activity measured in untreated Dbl-transformed cells. The data represent the average of 2 experiments. […] 100% represents the activity measured in untreated SKBR3 cells. The data represent the average of 2 experiments. […] Data represent the average of 3 experiments (±s.d.).
NIH 3T3 cells or NIH 3T3 cells stably expressing the Dbl oncogene, were transiently transfected with DNA encoding a V5-tagged GAC. The cells were then harvested and the ectopically expressed GAC was isolated by immunoprecipitation via the V5 tag. The VS-GAC obtained from one of the Dbl samples was additionally treated with alkaline phosphtase under dephosphorylation conditions. The samples were then assayed for glutaminase activity in the absence of phosphate (top panel) and the relative expression levels of VS-GAC was determined by Western blotting using an anit-V5 antibody (bottom panel).
NIH 3T3 cells stably expressing oncogenic Dbl were transiently transfected with DNA encoding VS-tagged GAC, and cells were treated with either 968 or BA-968 ([…]) as indicated for 48 hours. The cells were then harvested and the ectopically expressed GAC was isolated by immunoprecipitation via the V5 tag. The samples were then assayed for glutaminase activity in the absence of phosphate (top panel) and the relative expression levels of VS-GAC was determined by Western blotting using an anti-V5 antibody (bottom panel).

In the case of `CN(C)c1ccc(C2Nc3ccc4ccccc4c3C3=C2C(=O)CC(C)(C)C3)cc1Br` (stereo not drawn) [Compound 968, 5-[3-bromo-4-(dimethylamino)phenyl]-2,2-dimethyl-2,3,5,6-tetrahydrobenzo[a]], the “growth of HMECs” value (HMECs) is reported as “little effect”, the “colony formation in soft-agar” value [1] is reported as “blocking” and the “growth under low serum conditions” value ([1]; 1% calf serum) is reported as “blocking”. The “growth to high density” value ([1]; 10% calf serum, 6 days) was “blocking”, the invasive activity ([1]; Matri-gel, 24 hours) was “inhibiting” and the “potency on Dbl-induced transformation compared to oncogenic H-Ras” value [2] was “more potent inhibitor of Dbl-induced transformation”. For the same compound, the “phosphorylation state of GAC” value [3] was “significant reduction of at least one phosphorylation state”, the “GA activity IPed from Dbl-transformed cells” value ([4]; 10 μM) was “inhibited” and the “GAC activity after treatment of cells (FIG. 19)” value ([4]; cells treated 10 mM for 48 hours) was “effective inhibitors”.

Source: patent publication US10987317B2, “Inhibition of glutaminase C” (Cornell University, priority 2009, dated 2021)
